Data set [1] relates to Fusarium culmorum. The data set is described as follows: whole plant or invertebrate. The class given is in vivo, Fusarium culmorum on wheat spikelets cv. Monsun. As to conditions: in Triticum aestivum, read-out: control of Fusarium culmorum.

As to `CC(C)CC(C)(Cc1ccccc1)C(=O)Nc1cnc2c(Cl)cccc2c1` (stereo not shown) [Compound E-9, 2-benzyl-N-(8-chloro-3-quinolyl)-2,4-dimethyl-pentanamide], the melting point lay within 163 to 165 °C.

Compound `C=C(C)CC(C)(Cc1cccc(F)c1)C(=O)Nc1cnc2c(F)cccc2c1` (stereo not shown) [Compound E-11, 2-[(3-fluorophenyl)-methyl]-N-(8-fluoro-3-quinolyl)-2,4-dimethyl-pent-4-enamide] registered a melting point of 125 to 127 °C. On the same count and under the same terms, the figure for `C=C(C)CC(C)(Cc1cccc(F)c1)C(=O)Nc1cc2cccc(F)c2nc1C` (stereo not shown) [Compound E-12, N-(8-fluoro-2-methyl-3-quinolyl)-2-[(3-fluorophenyl)methyl]-2,4-dimethyl-pent-4-enamide] is 124 to 126 °C; for `Cc1c(NC(=O)C(C)(Cc2ccccc2)CC(C)C)cnc2c(Cl)cccc12` (stereo not shown) [Compound E-14, 2-benzyl-N-(8-chloro-4-methyl-3-quinolyl)-2,4-dimethyl-pentanamide] it is 124 to 126 °C. For the compound `Cc1c(NC(=O)C(C)(Cc2ccccc2)CC(F)(F)F)cnc2c(Cl)cccc12` (stereo not shown) [Compound E-15, 2-benzyl-N-(8-chloro-4-methyl-3-quinolyl)-4,4,4-trifluoro-2-methyl-butanamide], the melting point was in the range of 73 to 75 °C. Consider `CC(Cc1ccccc1)(CC1(F)CC1)C(=O)Nc1cnc2c(F)cccc2c1` (stereo not shown) [Compound E-25, 2-benzyl-3-(1-fluorocyclopropyl)-N-(8-fluoro-3-quinolyl)-2-methyl-propanamide], for which the melting point lay within 162 to 164 °C. In data set [1], the pest or weed control at 200 ppm was no less than 80%. Compound `C/C=C\CC(C)(Cc1ccccc1)C(=O)Nc1cnc2c(F)cccc2c1` (stereo not shown) [Compound E-28, (Z)-2-benzyl-N-(8-fluoro-3-quinolyl)-2-methyl-hex-4-enamide] yielded a melting point of 128 to 130 °C. Also, the pest or weed control at 200 ppm in data set [1] was no less than 80%. Take `CC(Cc1ccccc1)C(=O)Nc1cnc2c(F)cccc2c1` (stereo not shown) [Compound E-31, N-(8-fluoro-3-quinolyl)-2-methyl-3-phenyl-propanamide]: the melting point is 188 to 190 °C. Take `C/C=C(\C)CC(C)(Cc1ccccc1)C(=O)Nc1cnc2c(F)cccc2c1` (stereo not shown) [Compound E-32, (E)-2-benzyl-N-(8-fluoro-3-quinolyl)-2,4-dimethyl-hex-4-enamide]: the pest or weed control at 200 ppm in data set [1] was no less than 80%. `COCN(C(=O)C(C)(Cc1ccccc1)CC(F)(F)F)c1cnc2c(F)cccc2c1` (stereo not shown) [Compound E-33, 2-benzyl-4,4,4-trifluoro-N-(8-fluoro-3-quinolyl)-N-(methoxymethyl)-2-methyl-butanamide] registered a melting point of 108 to 110 °C. On to `CC(C)CC(Cc1ccccc1)C(=O)Nc1cnc2c(F)cccc2c1` (stereo not shown) [Compound E-35, 2-benzyl-N-(8-fluoro-3-quinolyl)-4-methyl-pentanamide], for which the pest or weed control at 200 ppm in data set [1] was no less than 80%. `COC(Cc1ccccc1)(CC(C)C)C(=O)Nc1cc2cccc(F)c2nc1C` (stereo not shown) [Compound E-37, 2-benzyl-N-(8-fluoro-2-methyl-3-quinolyl)-2-methoxy-4-methyl-pentanamide] gave a melting point of 92 to 94 °C. In addition, the pest or weed control at 200 ppm in data set [1] was no less than 80%. For `COC(Cc1ccccc1)(CC(C)C)C(=O)Nc1cnc2c(F)cccc2c1` (stereo not shown) [Compound E-38, 2-benzyl-N-(8-fluoro-3-quinolyl)-2-methoxy-4-methyl-pentanamide], in that order: 133 to 135 °C and no less than 80%. For `Cc1nc2c(F)cccc2cc1NC(=O)C(C)(Cc1ccccc1)OC(C)C` (stereo not shown) [Compound E-39, N-(8-fluoro-2-methyl-3-quinolyl)-2-isopropoxy-2-methyl-3-phenyl-propanamide], the pest or weed control at 200 ppm in data set [1] is no less than 80%.

Regarding `CC(C)OC(C)(Cc1ccccc1)C(=O)Nc1cnc2c(F)cccc2c1` (stereo not shown) [Compound E-40, N-(8-fluoro-3-quinolyl)-2-isopropoxy-2-methyl-3-phenyl-propanamide], in data set [1], the pest or weed control at 200 ppm was no less than 80%. As to `COC(C)(Cc1ccccc1)C(=O)Nc1cc2cccc(F)c2nc1C` (stereo not shown) [Compound E-41, N-(8-fluoro-2-methyl-3-quinolyl)-2-methoxy-2-methyl-3-phenyl-propanamide], the pest or weed control at 200 ppm in data set [1] is no less than 80%. With `CN(C(=O)C(C)(Cc1ccccc1)CC(F)(F)F)c1cnc2c(F)cccc2c1` (stereo not shown) [Compound E-42, 2-benzyl-4,4,4-trifluoro-N-(8-fluoro-3-quinolyl)-N,2-dimethyl-butanamide], the melting point was in the range of 137 to 139 °C. `COC(C)(Cc1ccccc1)C(=O)Nc1cnc2c(F)cccc2c1` (stereo not shown) [Compound E-43, N-(8-fluoro-3-quinolyl)-2-methoxy-2-methyl-3-phenyl-propanamide] returned a melting point of 107 to 109 °C. Further, the pest or weed control at 200 ppm in data set [1] is no less than 80%. Regarding `Cc1nc2c(F)cccc2cc1NC(=O)C(C)(Cc1ccccc1)CC(F)(F)F` (stereo not shown) [Compound E-47, 2-benzyl-4,4,4-trifluoro-N-(8-fluoro-2-methyl-3-quinolyl)-2-methyl-butanamide], the pest or weed control at 200 ppm in data set [1] was no less than 80%. The compound `CC(C)=CC(C)(Cc1ccccc1)C(=O)Nc1cnc2c(F)cccc2c1` (stereo not shown) [Compound E-48, 2-benzyl-N-(8-fluoro-3-quinolyl)-2,4-dimethyl-pent-3-enamide] registered a melting point of 167 to 169 °C. For the same compound, the pest or weed control at 200 ppm in data set [1] was no less than 80%. Regarding `CC(Cc1ccccc1)(CC(F)(F)F)C(=O)Nc1cnc2cccc(F)c2c1` (stereo not shown) [Compound E-49, 2-benzyl-4,4,4-trifluoro-N-(5-fluoro-3-quinolyl)-2-methyl-butanamide], the melting point is 140 to 142 °C. `CC(Cc1ccccc1)(CC(F)(F)F)C(=O)Nc1cnc2c(Cl)cccc2c1` (stereo not shown) [Compound E-51, 2-benzyl-N-(8-chloro-3-quinolyl)-4,4,4-trifluoro-2-methyl-butanamide] displayed a melting point of 104 to 106 °C. The pest or weed control at 200 ppm in data set [1] is no less than 80%. In turn, `CC(Cc1ccccc1)(CC(F)(F)F)C(=O)Nc1cnc2cc(F)ccc2c1` (stereo not shown) [Compound E-52, 2-benzyl-4,4,4-trifluoro-N-(7-fluoro-3-quinolyl)-2-methyl-butanamide] showed a melting point of 180 to 182 °C. Still for that read-out and setting: the figure for `C=C(CC)CC(C)(Cc1ccccc1)C(=O)Nc1cnc2c(F)cccc2c1` (stereo not shown) [Compound E-54, 2-benzyl-N-(8-fluoro-3-quinolyl)-2-methyl-4-methylene-hexanamide] is 118 to 120 °C. On to `CC(Cc1ccccc1)(CC(F)F)C(=O)Nc1cnc2c(F)cccc2c1` (stereo not shown) [Compound E-55, 2-benzyl-4,4-difluoro-N-(8-fluoro-3-quinolyl)-2-methyl-butanamide], for which the pest or weed control at 200 ppm in data set [1] is no less than 80%.

On to `CC(Cc1ccccc1)(CC(F)(F)Cl)C(=O)Nc1cnc2c(F)cccc2c1` (stereo not shown) [Compound E-56, 2-benzyl-4-chloro-4,4-difluoro-N-(8-fluoro-3-quinolyl)-2-methyl-butanamide], for which the pest or weed control at 200 ppm in data set [1] is no less than 80%.

Turning to `CC(C=C(F)F)(Cc1ccccc1)C(=O)Nc1cnc2c(F)cccc2c1` (stereo not shown) [Compound E-57, 2-benzyl-4,4-difluoro-N-(8-fluoro-3-quinolyl)-2-methyl-but-3-enamide], in data set [1], the pest or weed control at 200 ppm was no less than 80%.

As to `C=C(C)CC(C)(Cc1ccccc1)C(=O)Nc1cnc2ccccc2c1` (stereo not shown) [Compound E-64, 2-benzyl-2,4-dimethyl-N-(3-quinolyl)pent-4-enamide], the pest or weed control at 200 ppm in data set [1] is no less than 80%.

`C=C(C)CC(C)(Cc1ccccc1)C(=O)Nc1cnc2c(F)cccc2c1C` (stereo not shown) [Compound E-65, 2-benzyl-N-(8-fluoro-4-methyl-3-quinolyl)-2,4-dimethyl-pent-4-enamide] registered a melting point of 105 to 109 °C. On to `C=C(C)CC(C)(Cc1ccccc1)C(=O)Nc1cc2cccc(F)c2nc1C` (stereo not shown) [Compound E-66, 2-benzyl-N-(8-fluoro-2-methyl-3-quinolyl)-2,4-dimethyl-pent-4-enamide], for which the pest or weed control at 200 ppm in data set [1] is no less than 80%. For the compound `CC(C)(Cc1ccccc1)C(=O)Nc1cnc2c(F)cccc2c1` [Compound E-69, N-(8-fluoro-3-quinolyl)-2,2-dimethyl-3-phenyl-propanamide], the pest or weed control at 200 ppm in data set [1] is no less than 80%. In turn, `CC1(CC(C)(Cc2ccccc2)C(=O)Nc2cnc3c(F)cccc3c2)CC1` (stereo not shown) [Compound E-70, 2-benzyl-N-(8-fluoro-3-quinolyl)-2-methyl-3-(1-methylcyclopropyl)propanamide] had a melting point of 149 to 151 °C. On to `CCCC(C)(Cc1ccccc1)C(=O)Nc1cnc2c(F)cccc2c1` (stereo not shown) [Compound E-77, 2-benzyl-N-(8-fluoro-3-quinolyl)-2-methyl-pentanamide], for which, in data set [1], the pest or weed control at 200 ppm is no less than 80%.

As to `CC(Cc1ccccc1)(CC(F)(F)F)C(=O)Nc1cnc2ccccc2c1` (stereo not shown) [Compound E-81, 2-benzyl-4,4,4-trifluoro-2-methyl-N-(3-quinolyl)butanamide], the pest or weed control at 200 ppm in data set [1] was no less than 80%. With `CC(C)CC(C#N)(Cc1ccccc1)C(=O)Nc1cnc2c(F)cccc2c1` (stereo not shown) [Compound E-83, 2-benzyl-2-cyano-N-(8-fluoro-3-quinolyl)-4-methyl-pentanamide], in data set [1], the pest or weed control at 200 ppm is no less than 80%. For the compound `Cc1nc2c(F)cccc2cc1NC(=O)[C@](C)(Cc1ccccc1)CC(C)C` [Compound F-7, (2S)-2-benzyl-N-(8-fluoro-2-methyl-3-quinolyl)-2,4-dimethyl-pentanamide], in data set [1], the pest or weed control at 200 ppm was no less than 80%. Still for that read-out and setting: the same measure for `Cc1nc2c(F)cccc2cc1NC(=O)[C@@](C)(Cc1ccccc1)CC(C)C` [Compound F-8, (2R)-2-benzyl-N-(8-fluoro-2-methyl-3-quinolyl)-2,4-dimethyl-pentanamide]: no less than 80%; for `Cc1c(NC(=O)[C@](C)(Cc2ccccc2)CC(F)(F)F)cnc2c(F)cccc12` [Compound F-13, (2R)-2-benzyl-4,4,4-trifluoro-N-(8-fluoro-4-methyl-3-quinolyl)-2-methyl-butanamide]: no less than 80%. Same read-out and setting: the figure for `Cc1c(NC(=O)[C@@](C)(Cc2ccccc2)CC(F)(F)F)cnc2c(F)cccc12` [Compound F-14, (2S)-2-benzyl-4,4,4-trifluoro-N-(8-fluoro-4-methyl-3-quinolyl)-2-methyl-butanamide] is no less than 80%.

The values above are taken from US20220030867A1 (priority 2018, published 2022).
